≈ marks a conversion by molar mass, not a printed value.
Legend:
Experiment in all cases: ≥ marks a high value that may be exact or a test limit, other limits are often not marked, values filed in µg/mL are converted to µM
[1] = test system: Acinetobacter baumannii ICB 9250
[2] = test system: Acinetobacter baumannii Ab1408
Escherichia coli Ec513 = test system: Escherichia coli Ec513
Escherichia coli JJ2487 = test system: Escherichia coli JJ2487
Escherichia coli UB1005 = test system: Escherichia coli UB1005
[3] = test system: Proteus vulgaris ICB 9095
[4] = test system: Pseudomonas aeruginosa DSM 3227
[5] = test system: Proteus vulgaris ICB 9081
[6] = test system: Stenotrophomonas sp. ICB 308054
[7] = test system: Enterobacter cloacae 34654
[8] = test system: Klebsiella pneumoniae 57 USA
[9] = test system: Acinetobacter baumannii ICB 14073
[10] = test system: Pseudomonas aeruginosa ATCC 27853
[11] = test system: Escherichia coli ATCC 25922 ΔsbmA
[12] = test system: Escherichia coli DSM 1103
[13] = test system: Micrococcus luteus ATCC 10240
[14] = test system: Stenotrophomonas sp. ICB 7789
[15] = test system: Enterobacter cloacae Ha088
Escherichia coli BL21AI = test system: Escherichia coli BL21AI
[16] = test system: Klebsiella pneumoniae CMCC 46117
[17] = test system: Shigella dysenteriae CMCC 51252
Escherichia coli J2210 = test system: Escherichia coli J2210
[18] = test system: Escherichia coli ATCC 25922
[19] = test system: Acinetobacter baumannii Ab5755
[20] = test system: Enterobacter cloacae Ha185
Escherichia coli MC1061 = test system: Escherichia coli MC1061
[21] = test system: Shigella flexneri CMCC 51572
Escherichia coli Neumann = test system: Escherichia coli Neumann
[22] = test system: Klebsiella pneumoniae ATCC 12657
Pseudomonas aeruginosa = test system: Pseudomonas aeruginosa
[23] = test system: Bacillus subtilis ATCC 63501
Escherichia coli = test system: Escherichia coli
[24] = test system: Klebsiella pneumoniae DSM 681
[25] = test system: Pseudomonas aeruginosa Walter
[26] = test system: Salmonella enterica subsp. enterica serovar Enteritidis MH91989
[27] = test system: Salmonella typhimurium CMCC 50115

MIC [1]: 0.209 µM (≈ 0.5 µg/mL)
MIC [2]: ≥ 53.5 µM
MIC (Escherichia coli Ec513): ≥ 53.5 µM
MIC (Escherichia coli JJ2487): 0.251 µM (≈ 0.6 µg/mL)
MIC (Escherichia coli UB1005): 0.544 µM (≈ 1.3 µg/mL)
MIC [3]: 1.67 µM (≈ 4 µg/mL)
MIC [4]: 1.67 µM (≈ 4 µg/mL)
MIC [5]: 1.67 µM (≈ 4 µg/mL)
MIC [6]: 13.4 µM (≈ 32 µg/mL)
MIC [7]: 0.105 µM (≈ 0.25 µg/mL)
MIC [8]: 0.105 µM (≈ 0.25 µg/mL)
MIC [9]: 0.837 µM (≈ 2 µg/mL)
MIC [10]: 1.67 µM (≈ 4 µg/mL)
MIC [11]: 16 µM (≈ 38.2 µg/mL)
MIC [12]: 3.35 µM (≈ 8 µg/mL)
MIC [13]: 3.35 µM (≈ 8 µg/mL)
MIC [14]: 13.4 µM (≈ 32 µg/mL)
MIC [15]: 0.0523 µM (≈ 0.125 µg/mL)
MIC (Escherichia coli BL21AI): 1.67 µM (≈ 4 µg/mL)
MIC [16]: 2 µM (≈ 4.78 µg/mL)
MIC [17]: 8 µM (≈ 19.1 µg/mL)
MIC (Escherichia coli J2210): 0.33 µM (≈ 0.79 µg/mL)
MIC [18]: 8 µM (≈ 19.1 µg/mL)
MIC [19]: ≥ 53.5 µM
MIC [20]: 0.209 µM (≈ 0.5 µg/mL)
MIC (Escherichia coli MC1061): 0.126 µM (≈ 0.3 µg/mL)
MIC [21]: 8 µM (≈ 19.1 µg/mL)
MIC (Escherichia coli Neumann): 0.837 µM (≈ 2 µg/mL)
MIC [22]: 0.209 µM (≈ 0.5 µg/mL)
MIC (Pseudomonas aeruginosa): 1.18 µM (≈ 2.83 µg/mL)
MIC [23]: ≥ 512 µM
MIC (Escherichia coli): 0.296 µM (≈ 0.707 µg/mL)
MIC [24]: 1.67 µM (≈ 4 µg/mL)
MIC [25]: 3.35 µM (≈ 8 µg/mL)
MIC [26]: 0.251 µM (≈ 0.6 µg/mL)
MIC [27]: 8 µM (≈ 19.1 µg/mL)
SMILES: CC[C@H](C)[C@H](NC(=O)[C@H](CCCN=C(N)N)NC(=O)[C@H](CCCN=C(N)N)NC(=O)[C@@H]1CCCN1C(=O)[C@@H]1CCCN1C(=O)[C@H](CCCN=C(N)N)NC(=O)[C@@H]1CCCN1C(=O)[C@H](CCCN=C(N)N)NC(=O)[C@@H]1CCCN1C(=O)[C@H](CC(C)C)NC(=O)[C@H](Cc1ccc(O)cc1)NC(=O)[C@@H]1CCCN1C(=O)[C@@H]1CCCN1C(=O)[C@H](CCCCN)NC(=O)[C@H](CC(=O)O)NC(=O)[C@@H](N)C(C)C)C(=O)N[C@@H](Cc1ccc(O)cc1)C(=O)N[C@@H](CC(N)=O)C(=O)N[C@@H](CCCN=C(N)N)C(N)=O [VDKPPYLPRPRPPRRIYNR]
